From ChEMBL document CHEMBL5678818, “Discovery of potent SOS1 inhibitors that block RAS activation via disruption of the RAS-SOS1 interaction” (Proc Natl Acad Sci U S A, 2019) come the findings set out here.

Structures are written as SMILES.

The subject of assay [1] is Tyrosine-protein kinase ABL1 (Homo sapiens), P00519 [F317L]. Nature of the assay: Inhibition of phosphorylated ABL1 F317L mutant (unknown origin) assessed as residual activity at 1000 nM by KINOMEscan analysis relative to control.
Assay [2] concerns the target T1, Myosin-IIIb (Homo sapiens) (UniProt Q8WXR4).
T1 sequence (whole entry): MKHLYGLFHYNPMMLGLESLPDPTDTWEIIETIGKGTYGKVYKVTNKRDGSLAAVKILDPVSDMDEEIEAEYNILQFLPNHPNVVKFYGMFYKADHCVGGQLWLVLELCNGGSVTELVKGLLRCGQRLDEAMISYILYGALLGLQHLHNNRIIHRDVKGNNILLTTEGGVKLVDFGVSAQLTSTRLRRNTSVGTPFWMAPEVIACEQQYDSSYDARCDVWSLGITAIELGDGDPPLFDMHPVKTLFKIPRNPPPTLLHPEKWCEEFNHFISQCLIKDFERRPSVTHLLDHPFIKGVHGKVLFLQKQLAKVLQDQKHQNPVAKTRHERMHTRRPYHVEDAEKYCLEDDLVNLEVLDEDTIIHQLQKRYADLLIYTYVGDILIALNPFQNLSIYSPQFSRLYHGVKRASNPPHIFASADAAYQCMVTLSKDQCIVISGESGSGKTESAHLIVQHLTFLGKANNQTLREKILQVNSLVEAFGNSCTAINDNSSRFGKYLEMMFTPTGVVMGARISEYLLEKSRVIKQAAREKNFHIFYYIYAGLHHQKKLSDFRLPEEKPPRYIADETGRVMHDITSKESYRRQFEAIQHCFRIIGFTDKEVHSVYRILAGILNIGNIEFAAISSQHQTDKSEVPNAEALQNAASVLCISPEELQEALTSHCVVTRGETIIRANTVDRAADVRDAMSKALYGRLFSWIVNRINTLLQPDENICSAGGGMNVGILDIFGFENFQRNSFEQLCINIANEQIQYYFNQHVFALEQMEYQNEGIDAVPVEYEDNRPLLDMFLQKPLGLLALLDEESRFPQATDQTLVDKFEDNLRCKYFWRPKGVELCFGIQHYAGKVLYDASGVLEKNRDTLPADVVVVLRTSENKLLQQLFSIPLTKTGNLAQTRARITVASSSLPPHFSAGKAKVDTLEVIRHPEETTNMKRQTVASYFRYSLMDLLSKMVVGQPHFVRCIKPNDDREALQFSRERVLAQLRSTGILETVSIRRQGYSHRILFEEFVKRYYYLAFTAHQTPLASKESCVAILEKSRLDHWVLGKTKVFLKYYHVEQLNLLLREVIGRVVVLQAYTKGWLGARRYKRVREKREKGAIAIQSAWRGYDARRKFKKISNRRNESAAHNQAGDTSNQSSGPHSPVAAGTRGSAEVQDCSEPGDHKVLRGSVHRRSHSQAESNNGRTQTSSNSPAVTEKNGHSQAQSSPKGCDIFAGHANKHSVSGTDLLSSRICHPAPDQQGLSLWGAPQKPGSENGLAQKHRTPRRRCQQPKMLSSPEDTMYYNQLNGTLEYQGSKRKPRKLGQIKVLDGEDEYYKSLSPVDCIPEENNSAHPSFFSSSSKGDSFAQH
The assay is described as follows: Inhibition of MYO3B (unknown origin) assessed as residual activity at 1000 nM by KINOMEscan analysis relative to control.

Assay [3] deals with Serine/threonine-protein kinase NIM1 (Homo sapiens) (UniProt Q8IY84). The assay is described as follows: Inhibition of NIM1 (unknown origin) assessed as residual activity at 1000 nM by KINOMEscan analysis relative to control.
For assay [4], the target named is Cyclin-dependent kinase 15 (Homo sapiens) (UniProt Q96Q40). Nature of the assay: Inhibition of PFTAIRE2 (unknown origin) assessed as residual activity at 1000 nM by KINOMEscan analysis relative to control.
For assay [5], the target named is T2, Serine/threonine-protein kinase RIO3 (Homo sapiens) (UniProt O14730).
T2 sequence (whole entry): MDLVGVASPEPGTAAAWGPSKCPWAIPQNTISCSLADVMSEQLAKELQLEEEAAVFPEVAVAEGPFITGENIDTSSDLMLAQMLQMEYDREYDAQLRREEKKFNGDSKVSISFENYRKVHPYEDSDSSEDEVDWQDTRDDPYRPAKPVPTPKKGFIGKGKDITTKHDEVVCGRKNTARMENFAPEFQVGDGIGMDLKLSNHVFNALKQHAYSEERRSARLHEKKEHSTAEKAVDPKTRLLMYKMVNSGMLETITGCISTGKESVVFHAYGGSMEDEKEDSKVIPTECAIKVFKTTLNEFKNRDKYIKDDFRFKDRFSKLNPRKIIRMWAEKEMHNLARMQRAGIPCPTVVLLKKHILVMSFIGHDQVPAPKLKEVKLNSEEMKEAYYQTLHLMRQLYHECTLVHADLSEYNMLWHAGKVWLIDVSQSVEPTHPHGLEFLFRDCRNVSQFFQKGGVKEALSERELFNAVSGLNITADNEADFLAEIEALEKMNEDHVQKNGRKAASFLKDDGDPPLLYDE
Nature of the assay: Inhibition of RIOK3 (unknown origin) assessed as residual activity at 1000 nM by KINOMEscan analysis relative to control.

In assay [6] the target is T3, SNF-related serine/threonine-protein kinase (Homo sapiens) (UniProt Q9NRH2).
T3 sequence (whole entry): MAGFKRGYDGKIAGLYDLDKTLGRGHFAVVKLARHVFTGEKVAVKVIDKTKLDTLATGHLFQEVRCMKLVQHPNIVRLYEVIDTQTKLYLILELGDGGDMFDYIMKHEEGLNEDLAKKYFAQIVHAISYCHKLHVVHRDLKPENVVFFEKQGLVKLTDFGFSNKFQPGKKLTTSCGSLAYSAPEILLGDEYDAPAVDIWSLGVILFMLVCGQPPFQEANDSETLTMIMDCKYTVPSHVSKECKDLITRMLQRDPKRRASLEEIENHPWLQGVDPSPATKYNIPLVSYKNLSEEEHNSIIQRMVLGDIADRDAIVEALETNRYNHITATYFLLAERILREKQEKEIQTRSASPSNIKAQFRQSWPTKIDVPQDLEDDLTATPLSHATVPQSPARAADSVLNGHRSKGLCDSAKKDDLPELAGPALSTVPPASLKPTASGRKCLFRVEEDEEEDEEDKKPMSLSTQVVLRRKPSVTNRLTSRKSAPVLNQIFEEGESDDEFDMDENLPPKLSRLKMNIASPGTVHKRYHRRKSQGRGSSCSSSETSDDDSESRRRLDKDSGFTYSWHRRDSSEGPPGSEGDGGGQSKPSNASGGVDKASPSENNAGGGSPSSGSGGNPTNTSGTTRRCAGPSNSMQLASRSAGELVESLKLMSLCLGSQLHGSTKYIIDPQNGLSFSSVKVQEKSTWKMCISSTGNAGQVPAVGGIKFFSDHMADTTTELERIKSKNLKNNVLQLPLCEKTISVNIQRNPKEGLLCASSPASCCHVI
Nature of the assay: Inhibition of SNRK (unknown origin) assessed as residual activity at 1000 nM by KINOMEscan analysis relative to control.

Chain of Cyclin-dependent kinase 15 (Homo sapiens) (Q96Q40 whole entry): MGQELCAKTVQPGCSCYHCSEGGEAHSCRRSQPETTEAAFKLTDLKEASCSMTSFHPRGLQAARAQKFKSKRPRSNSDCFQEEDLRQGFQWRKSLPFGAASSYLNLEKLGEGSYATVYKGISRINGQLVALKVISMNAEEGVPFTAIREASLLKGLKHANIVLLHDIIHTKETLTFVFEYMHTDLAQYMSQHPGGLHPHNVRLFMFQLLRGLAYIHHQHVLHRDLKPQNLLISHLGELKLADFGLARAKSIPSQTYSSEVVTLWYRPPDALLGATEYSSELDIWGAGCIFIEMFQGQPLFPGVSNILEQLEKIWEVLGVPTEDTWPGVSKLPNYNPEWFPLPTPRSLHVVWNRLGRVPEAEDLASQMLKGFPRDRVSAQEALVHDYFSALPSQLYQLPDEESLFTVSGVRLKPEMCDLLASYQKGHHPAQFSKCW
Chain of Serine/threonine-protein kinase NIM1 (Homo sapiens) (Q8IY84 whole entry): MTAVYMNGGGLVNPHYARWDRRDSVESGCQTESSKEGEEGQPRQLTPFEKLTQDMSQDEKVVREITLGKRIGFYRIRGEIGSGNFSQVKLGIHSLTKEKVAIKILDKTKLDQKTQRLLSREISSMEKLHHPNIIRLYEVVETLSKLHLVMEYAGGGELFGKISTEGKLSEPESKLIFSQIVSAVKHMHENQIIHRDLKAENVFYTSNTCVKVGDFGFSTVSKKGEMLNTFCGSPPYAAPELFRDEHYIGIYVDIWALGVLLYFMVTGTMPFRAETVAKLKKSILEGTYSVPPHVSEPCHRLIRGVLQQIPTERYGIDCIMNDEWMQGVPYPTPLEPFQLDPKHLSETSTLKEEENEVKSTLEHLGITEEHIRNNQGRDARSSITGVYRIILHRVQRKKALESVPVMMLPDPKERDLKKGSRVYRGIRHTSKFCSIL
Chain of Tyrosine-protein kinase ABL1 (Homo sapiens), P00519 [F317L] (P00519 whole entry F317L): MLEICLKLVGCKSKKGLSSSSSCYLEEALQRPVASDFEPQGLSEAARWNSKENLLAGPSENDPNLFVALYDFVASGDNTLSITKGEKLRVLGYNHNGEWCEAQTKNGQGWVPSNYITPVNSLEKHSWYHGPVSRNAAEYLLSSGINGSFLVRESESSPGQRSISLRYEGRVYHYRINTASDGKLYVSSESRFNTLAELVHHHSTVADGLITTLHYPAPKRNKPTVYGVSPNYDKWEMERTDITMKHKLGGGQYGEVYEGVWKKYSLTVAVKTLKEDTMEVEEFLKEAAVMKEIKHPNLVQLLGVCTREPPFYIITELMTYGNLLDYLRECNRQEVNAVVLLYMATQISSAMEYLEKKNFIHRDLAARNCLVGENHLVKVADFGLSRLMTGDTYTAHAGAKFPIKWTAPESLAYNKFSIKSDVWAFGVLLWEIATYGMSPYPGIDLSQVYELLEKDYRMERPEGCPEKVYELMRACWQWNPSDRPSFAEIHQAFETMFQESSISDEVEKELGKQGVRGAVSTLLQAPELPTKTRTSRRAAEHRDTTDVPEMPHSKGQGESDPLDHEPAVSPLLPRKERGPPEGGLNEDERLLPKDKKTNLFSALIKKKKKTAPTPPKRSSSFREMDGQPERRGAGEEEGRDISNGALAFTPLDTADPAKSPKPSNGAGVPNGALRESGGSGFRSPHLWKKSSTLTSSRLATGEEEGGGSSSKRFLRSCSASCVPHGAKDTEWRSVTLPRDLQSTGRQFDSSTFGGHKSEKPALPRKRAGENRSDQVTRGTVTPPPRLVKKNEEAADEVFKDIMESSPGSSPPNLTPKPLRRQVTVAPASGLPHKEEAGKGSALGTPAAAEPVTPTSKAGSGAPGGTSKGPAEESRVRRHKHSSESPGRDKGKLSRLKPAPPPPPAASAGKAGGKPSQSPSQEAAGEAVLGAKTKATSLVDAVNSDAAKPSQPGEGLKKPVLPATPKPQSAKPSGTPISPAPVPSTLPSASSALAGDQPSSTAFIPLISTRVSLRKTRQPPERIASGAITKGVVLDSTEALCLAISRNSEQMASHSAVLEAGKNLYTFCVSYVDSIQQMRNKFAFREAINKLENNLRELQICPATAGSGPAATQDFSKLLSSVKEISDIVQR

With `COc1cc2nc(C)nc(N[C@H](C)c3cccc(-c4cn[nH]c4)c3)c2cc1OC`, the Activity in assay [1] is 92%; in assay [2] it was 89%; in assay [3], 88%; in assay [4] it was 94%; in assay [5], 88%; in assay [6], 95%.
On to `COc1cc2ncnc(N[C@H](C)c3cccc4ccccc34)c2cc1OC`, for which the Activity stood at 89% in assay [1]; 88% in assay [2]; 78% in assay [3]; 100% in assay [4]; 83% in assay [5]; 92% in assay [6].
